Data taken from article PMC7129916 (Clinical Microbiology and Infection, 2015).
In brackets after ≈: the same amount, converted by molar mass. Like-named read-outs stand apart in the source and are kept apart here.

How the values were obtained:
S. pneumoniae (Sp) = test: microbe, parasite or virus in culture; type: cell-based; conditions: Streptococcus pneumoniae
M. catarrhalis (Mc) = test: microbe, parasite or virus in culture; type: cell-based; conditions: Moraxella catarrhalis
H. influenzae (Hi) = test: microbe, parasite or virus in culture; type: cell-based; conditions: Haemophilus influenzae
group B streptococci = type: cell-based
S. pneumoniae [1] = test system: S. pneumoniae
[2] = test system: beta1-integrin in human tendon cells
S. pneumoniae [3] = test: microbe, parasite or virus in culture; type: cell-based; conditions: for susceptible (%): DIN breakpoints
H. influenzae = test: microbe, parasite or virus in culture; type: cell-based
[4] = test system: viridans group streptococci; test: organism not typed; type: cell-based
M. catarrhalis [5] = test: microbe, parasite or virus in culture; type: cell-based; conditions: Moraxella catarrhalis
[6] = test system: viridans Streptococci (S. mitis, S. oralis); type: cell-based; conditions: susceptible strains, salivary concentrations
[7] = test system: S. pneumoniae with reduced susceptibility to ciprofloxacin; test: microbe, parasite or virus in culture; type: cell-based
M. catarrhalis [8] = test: microbe, parasite or virus in culture; type: cell-based
invasive GAS isolates = type: cell-based, S. pyogenes
[9] = type: in vivo, human; conditions: after 6 months

| Molecule | MIC90 (S. pneumoniae (Sp)) [µg/mL] | MIC50 (M. catarrhalis (Mc)) [µg/mL] | MIC90 (M. catarrhalis (Mc)) [µg/mL] | susceptibility of all strains (group B streptococci) | %I (S. pneumoniae [1]; 2002 (n = 103)) [%] | %S (S. pneumoniae [1]; 2002 (n = 103)) [%] | %I (S. pneumoniae [1]; 2003 (n = 137)) [%] | %R (S. pneumoniae [1]; 2003 (n = 137)) [%] | %S (S. pneumoniae [1]; 2003 (n = 137)) [%] | %I (S. pneumoniae [1]; 2004 (n = 110)) [%] | %R (S. pneumoniae [1]; 2004 (n = 110)) [%] | %S (S. pneumoniae [1]; 2004 (n = 110)) [%] | also measured |
| --- | --- | --- | --- | --- | --- | --- | --- | --- | --- | --- | --- | --- | --- |
| CC1(C)S[C@@H]2[C@H](NC(=O)[C@H](N)c3ccccc3)C(=O)N2[C@H]1C(=O)O [ampicillin] | 0.25 (≈ 0.715 µM) | 1 (≈ 2.86 µM) | 4 (≈ 11.4 µM) | susceptible |  |  |  |  |  |  |  |  | MIC50 (H. influenzae (Hi)): 0.5 µg/mL (≈ 1.43 µM) |
| CO/N=C(\C(=O)N[C@@H]1C(=O)N2C(C(=O)O)=C(COC(C)=O)CS[C@H]12)c1csc(N)n1 [cefotaxime] |  |  |  |  | 3.8 | 95.2 | 4.4 | 0.6 | 95 | 3.8 | 0 | 96.2 | %R (S. pneumoniae [1]; 2002 (n = 103)): 1% |
| CO/N=C(\C(=O)N[C@@H]1C(=O)N2C(C(=O)O)=C(CSc3nc(=O)c(=O)[nH]n3C)CS[C@H]12)c1csc(N)n1 [ceftriaxone] | 0.25 (≈ 0.451 µM) | 0.5 (≈ 0.902 µM) | 1 (≈ 1.8 µM) |  |  |  |  |  |  |  |  |  | MIC50 (S. pneumoniae (Sp)): 0.03 µg/mL (≈ 0.0541 µM); MIC90 (H. influenzae (Hi)): 0.03 µg/mL (≈ 0.0541 µM) |
| CO/N=C(\C(=O)N[C@@H]1C(=O)N2C(C(=O)O)=C(COC(N)=O)CS[C@H]12)c1ccco1 [cefuroxime] | 1 (≈ 2.36 µM) | 1 (≈ 2.36 µM) |  |  |  |  |  |  |  |  |  |  | MIC50 (H. influenzae (Hi)): 1 µg/mL (≈ 2.36 µM) |
| O=C(O)c1cn(C2CC2)c2cc(N3CCNCC3)c(F)cc2c1=O [ciprofloxacin] | 2 (≈ 6.04 µM) | 0.06 (≈ 0.181 µM) | 0.06 (≈ 0.181 µM) |  |  |  |  |  |  |  |  |  | MIC50 (S. pneumoniae (Sp)): 1 µg/mL (≈ 3.02 µM); amount of beta1-integrin vs untreated control [2]: significant decrease |
| CC[C@H]1OC(=O)[C@H](C)[C@@H](O[C@H]2C[C@@](C)(OC)[C@@H](O)[C@H](C)O2)[C@H](C)[C@@H](O[C@@H]2O[C@H](C)C[C@H](N(C)C)[C@H]2O)[C@](C)(OC)C[C@@H](C)C(=O)[C@H](C)[C@@H](O)[C@]1(C)O [clarithromycin] |  |  |  |  | 0 | 58.8 | 0 | 38.7 | 61.3 | 1 | 34.5 | 64.5 | susceptible (%) (S. pneumoniae [3]): 85.7%; susceptible (%) (H. influenzae): 4.5% |
| C[C@H]1c2cccc(O)c2C(=O)C2=C(O)[C@]3(O)C(=O)C(C(N)=O)=C(O)[C@@H](N(C)C)[C@@H]3[C@@H](O)[C@@H]21 [doxycycline] | 8 (≈ 18 µM) |  | 0.25 (≈ 0.563 µM) |  |  |  |  |  |  |  |  |  |  |
| CC[C@H]1OC(=O)[C@H](C)[C@@H](O[C@H]2C[C@@](C)(OC)[C@@H](O)[C@H](C)O2)[C@H](C)[C@@H](O[C@@H]2O[C@H](C)C[C@H](N(C)C)[C@H]2O)[C@](C)(O)C[C@@H](C)C(=O)[C@H](C)[C@@H](O)[C@]1(C)O [erythromycin] |  |  |  |  | 0 | 56.9 | 1.4 | 38.8 | 59.8 | 0 | 35.5 | 64.5 | MIC ([4]; S. sanguis mef(A)): 4 µg/mL (≈ 5.45 µM); %R (S. pneumoniae [1]; 2002 (n = 103)): 43.1% |
| CO/N=C1\CN(c2nc3c(cc2F)c(=O)c(C(=O)O)cn3C2CC2)CC1CN (stereo not drawn) [gemifloxacin] |  |  |  |  |  |  |  |  |  |  |  |  | MIC50 (M. catarrhalis [5]): ≤ 0.12 µg/mL |
| C[C@H]1COc2c(N3CCN(C)CC3)c(F)cc3c(=O)c(C(=O)O)cn1c23 [levofloxacin] | 1 (≈ 2.77 µM) | 0.03 (≈ 0.083 µM) | 0.06 (≈ 0.166 µM) | susceptible | 3 | 96 | 0.7 | 1.5 | 97.8 | 0 | 0 | 100 | time to eradication [6]: 12 to 24 h; MIC90 (S. pneumoniae [3]; n = 426): 1 µg/mL (≈ 2.77 µM); MIC50 (S. pneumoniae (Sp)): 1 µg/mL (≈ 2.77 µM); MIC50 (H. influenzae (Hi)): 0.03 µg/mL (≈ 0.083 µM); MIC90 (H. influenzae (Hi)): 0.03 µg/mL (≈ 0.083 µM); MIC50 ([7]; Streptococcus pneumoniae): 0.5 µg/mL (≈ 1.38 µM); MIC90 ([7]; Streptococcus pneumoniae): 1 µg/mL (≈ 2.77 µM); MIC90 ([7]; ciprofloxacin MIC ≥8 mg/L): 8; MIC50 (M. catarrhalis [5]): ≤ 0.03 µg/mL; MIC (M. catarrhalis [5]; read-out: MIC 10» (second value)): 1 µg/mL (≈ 2.77 µM); %R (S. pneumoniae [1]; 2002 (n = 103)): 1%; amount of beta1-integrin vs untreated control ([2]; 3 mg/l, 1-4 days): no effect |
| CC(=O)NC[C@H]1CN(c2ccc(N3CCOCC3)c(F)c2)C(=O)O1 [linezolid] |  |  |  |  |  |  |  |  |  |  |  |  | MIC [4]: 0.5 µg/mL (≈ 1.48 µM); %I (S. pneumoniae [1]): 0%; %R (S. pneumoniae [1]): 0%; %S (S. pneumoniae [1]): 100% |
| CC1(C)S[C@@H]2[C@H](NC(=O)Cc3ccccc3)C(=O)N2[C@H]1C(=O)O [penicillin] | 0.5 (≈ 1.5 µM) | 64 (≈ 191 µM) | 64 (≈ 191 µM) | susceptible | 31.1 | 46.6 | 55.5 | 5 | 39.5 | 30 | 11 | 59 | susceptible (%) (S. pneumoniae [3]): 93.3%; susceptible (%) (H. influenzae): 1.0%; susceptible (%) (M. catarrhalis [8]): 9.8%; MIC50 (S. pneumoniae (Sp)): 0.03 µg/mL (≈ 0.0897 µM); MIC50 (H. influenzae (Hi)): 1 µg/mL (≈ 2.99 µM); MIC90 (H. influenzae (Hi)): 64 µg/mL (≈ 191 µM); %R (S. pneumoniae [1]; 2002 (n = 103)): 22.3% |
| CN(C)[C@@H]1C(O)=C(C(N)=O)C(=O)[C@@]2(O)C(O)=C3C(=O)c4c(O)cccc4[C@@](C)(O)[C@H]3C[C@@H]12 [tetracycline] |  |  |  |  |  |  |  |  |  |  |  |  | resistant isolates (invasive GAS isolates): 50%; mean per cent reduction, inflammatory lesions [9]: 56%; mean per cent reduction, non-inflammatory lesions [9]: 45% |
| CN[C@H](CC(C)C)C(=O)N[C@H]1C(=O)N[C@@H](CC(N)=O)C(=O)N[C@H]2C(=O)N[C@H]3C(=O)N[C@H](C(=O)N[C@H](C(=O)O)c4cc(O)cc(O)c4-c4cc3ccc4O)[C@H](O)c3ccc(c(Cl)c3)Oc3cc2cc(c3O[C@@H]2O[C@H](CO)[C@@H](O)[C@H](O)[C@H]2O[C@H]2C[C@](C)(N)[C@H](O)[C@H](C)O2)Oc2ccc(cc2Cl)[C@H]1O [vancomycin] |  |  |  | susceptible |  |  |  |  |  |  |  |  | %I (S. pneumoniae [1]): 0%; %R (S. pneumoniae [1]): 0%; %S (S. pneumoniae [1]): 100% |
| Quinupristin-Dalfopristin |  |  |  |  | 5.8 | 94.2 | 0 | 0 | 100 | 1 | 0 | 99 | %R (S. pneumoniae [1]; 2002 (n = 103)): 0% |
| amoxicillin/clavulanate |  |  |  |  |  |  |  |  |  |  |  |  | susceptible (%) (H. influenzae): 87.9%; susceptible (%) (M. catarrhalis [8]): 99.1% |
| quinupristin/dalfopristin |  |  |  | susceptible |  |  |  |  |  |  |  |  |  |
| teicoplanin |  |  |  | susceptible |  |  |  |  |  |  |  |  |  |
